# Literature values, collected in patent publication US20110207823A1, “12-HOUR SUSTAINED-RELEASE METOCLOPRAMIDE” (POSIVISIONARY SOLUTIONS LLP, priority 2008, published 2011).
# Conditions: immediate release dosages
structure (smiles),measurement,value
"CCN(CC)CCNC(=O)c1cc(Cl)c(N)cc1OC [metoclopramide, Metoclopramide]",metoclopramide peaks in plasma with undesirable side effects (akathisia),above 100 nanograms per milliliter
